Test results published in doi:10.64898/2025.12.10.692519v1 (biorxiv, 2025).
Like-named read-outs stand apart in the source and are kept apart here. One block for each molecule: values may come before it.

Key:
Assay in all cases: cells
TG-LAM-134-P0 = test system: TG-LAM-134-P0; set-up: species or system primary AML patient blasts; settings: 48 h
TG-LAM-135-P0 = test system: TG-LAM-135-P0; set-up: species or system primary AML patient blasts; settings: 48 h
TG-LAM-136-P0 = test system: TG-LAM-136-P0; set-up: species or system primary AML patient blasts; settings: 48 h
TG-LAM-138-P0 = test system: TG-LAM-138-P0; set-up: species or system primary AML patient blasts; settings: 48 h
TG-LAM-139-P0 = test system: TG-LAM-139-P0; set-up: species or system primary AML patient blasts; settings: 48 h
TG-LAM-140-P0 = test system: TG-LAM-140-P0; set-up: species or system primary AML patient blasts; settings: 48 h
TG-LAM-141-P0 = test system: TG-LAM-141-P0; set-up: species or system primary AML patient blasts; settings: 48 h
TG-LAM-142-P0 = test system: TG-LAM-142-P0; set-up: species or system primary AML patient blasts; settings: 48 h
TG-LAM-144-P0 = test system: TG-LAM-144-P0; set-up: species or system primary AML patient blasts; settings: 48 h
TG-LAM-145-P0 = test system: TG-LAM-145-P0; set-up: species or system primary AML patient blasts; settings: 48 h
TG-LAM-77-P0 = test system: TG-LAM-77-P0; set-up: species or system primary AML patient blasts; settings: 48 h
ACHN = settings: Homo sapiens, ACHN, 144 h
HRT-18 = settings: Homo sapiens, HRT-18, 144 h
LnCaP = settings: Homo sapiens, LNCaP, 144 h
MCF-7 = settings: Homo sapiens, MCF7, 144 h
MESSA [1] = settings: Homo sapiens, MES-SA, 144 h
PC-3 = settings: Homo sapiens, PC-3, 144 h
REC-1 = settings: Homo sapiens, Rec1, 144 h
SW-872 = settings: Homo sapiens, SW872, 144 h
MESSA [2] = test system: MESSA; set-up: species or system MES-SA/Mx2; settings: Homo sapiens, MES-SA, read-out: MES-SA
786-O = settings: Homo sapiens, 786-0, 144 h, read-out: Lexibulin (CYT997)
A-549 = settings: Homo sapiens, A549, 144 h
CCRF-CEM = settings: Homo sapiens, CCRF-CEM, 144 h, read-out: Lexibulin (CYT997)
DU-145 = settings: Homo sapiens, DU-145, 144 h
H-1299 = settings: Homo sapiens, NCI-H1299, 144 h
HEP-2 = settings: Homo sapiens, HEp-2, 144 h
HGC-27 = settings: Homo sapiens, HGC-27, 144 h, read-out: Lexibulin (CYT997)
HL-60 = settings: Homo sapiens, HL-60, 144 h
HUT-78 = settings: Homo sapiens, HuT78, 144 h
Karpas-299 = settings: Homo sapiens, KARPAS-299, 144 h
MDA-MB-468 = settings: Homo sapiens, MDA-MB-468, 144 h, read-out: Lexibulin (CYT997)
MOLM-14 = settings: Homo sapiens, MOLM-14, 144 h, read-out: Lexibulin (CYT997)
NALM-6 = settings: Homo sapiens, NALM-6, 144 h
NOMO-1 = settings: Homo sapiens, NOMO-1, 144 h, read-out: Lexibulin (CYT997)
PANC-1 = settings: Homo sapiens, PANC-1, 144 h, read-out: Lexibulin (CYT997)
PLC-PRF5 = settings: Homo sapiens, PLC-PRF-5, 144 h, read-out: Lexibulin (CYT997)
THP-1 = settings: Homo sapiens, THP-1, 144 h, read-out: Lexibulin (CYT997)
Tov21G = settings: Homo sapiens, TOV21G, 144 h, read-out: Lexibulin (CYT997)
U-118 = settings: 144 h, read-out: Lexibulin (CYT997)
U87-MG = settings: Homo sapiens, U-87 MG, 144 h, read-out: Lexibulin (CYT997)
TG-LAM-143-P0 = test system: TG-LAM-143-P0; set-up: species or system primary AML patient blasts; settings: 48 h, read-out: IC50 (µM) / AzaC
TG-LAM-75-P3 = test system: TG-LAM-75-P3; set-up: species or system primary AML patient blasts; settings: 48 h, read-out: IC50 (µM) / AzaC
TG-LAM-76-P3 = test system: TG-LAM-76-P3; set-up: species or system primary AML patient blasts; settings: 48 h, read-out: IC50 (µM) / AzaC
U2OS = settings: Homo sapiens, U2OS, 144 h, read-out: Eribulin

SMILES: CCC[C@H](Nc1nc(-c2ccc(NC(=O)NCC)c(OC)c2)ncc1C)c1cccnc1 [Lexibulin]
IC50 (786-O): 165 nM
IC50 (A-549; read-out: Lexibulin (CYT997)): 21 nM
IC50 (ACHN; read-out: Lexibulin (CYT997)): 36 nM
IC50 (CCRF-CEM): 8 nM
IC50 (DU-145; read-out: Lexibulin (CYT997)): 32 nM
IC50 (H-1299; read-out: Lexibulin (CYT997)): 7 nM
IC50 (HEP-2; read-out: Lexibulin (CYT997)): 16 nM
IC50 (HGC-27): 8 nM
IC50 (HL-60; read-out: Lexibulin (CYT997)): 8 nM
IC50 (HRT-18; read-out: Lexibulin (CYT997)): 31 nM
IC50 (HUT-78; read-out: Lexibulin (CYT997)): 6 nM
IC50 (Karpas-299; read-out: Lexibulin (CYT997)): 4 nM
IC50 (LnCaP; read-out: Lexibulin (CYT997)): 52 nM
IC50 (MCF-7; read-out: Lexibulin (CYT997)): 12 nM
IC50 (MDA-MB-468): 685 nM
IC50 (MESSA [1]; read-out: Lexibulin (CYT997)): 24 nM
IC50 (MOLM-14): 45 nM
IC50 (NALM-6; read-out: Lexibulin (CYT997)): 9 nM
IC50 (NOMO-1): 280 nM
IC50 (PANC-1): 13 nM
IC50 (PC-3; read-out: Lexibulin (CYT997)): 142 nM
IC50 (PLC-PRF5): 25 nM
IC50 (REC-1; read-out: Lexibulin (CYT997)): 10 nM
IC50 (THP-1): 9 nM
IC50 (Tov21G): 13 nM
IC50 (U-118): 13 nM
IC50 (U87-MG): 20 nM

SMILES: CC(=O)O[C@H]1C(=O)[C@@]2(C)[C@H]([C@H](OC(=O)c3ccccc3)[C@]3(O)C[C@H](OC(=O)[C@H](O)[C@@H](NC(=O)c4ccccc4)c4ccccc4)C(C)=C1C3(C)C)[C@]1(OC(C)=O)CO[C@@H]1C[C@@H]2O [paclitaxel]
IC50 (MESSA [2]): 8 ± 5 nM

Other lines, results leading:

IC50 (TG-LAM-134-P0; read-out: IC50 (µM) / Vinc): 0.17 µM
IC50 (TG-LAM-135-P0; read-out: IC50 (µM) / Vinc): > 2 µM
IC50 (TG-LAM-136-P0; read-out: IC50 (µM) / Vinc): 1.35 µM
IC50 (TG-LAM-138-P0; read-out: IC50 (µM) / Vinc): > 2 µM
IC50 (TG-LAM-139-P0; read-out: IC50 (µM) / Vinc): > 2 µM
IC50 (TG-LAM-140-P0; read-out: IC50 (µM) / Vinc): 1.13 µM
IC50 (TG-LAM-141-P0; read-out: IC50 (µM) / Vinc): 1.38 µM
IC50 (TG-LAM-142-P0; read-out: IC50 (µM) / Vinc): > 2 µM
IC50 (TG-LAM-144-P0; read-out: IC50 (µM) / Vinc): 1.6 µM
IC50 (TG-LAM-145-P0; read-out: IC50 (µM) / Vinc): > 2 µM
IC50 (TG-LAM-77-P0; read-out: IC50 (µM) / Vinc): > 2 µM
IC50 (ACHN; read-out: Vincristine): 166 nM
IC50 (HRT-18; read-out: Vincristine): 13 nM
IC50 (LnCaP; read-out: Vincristine): 66 nM
IC50 (MCF-7; read-out: Vincristine): 37 nM
IC50 (MESSA [1]; read-out: Vincristine): 106 nM
IC50 (PC-3; read-out: Vincristine): 23 nM
IC50 (REC-1; read-out: Vincristine): 56 nM
IC50 (SW-872; read-out: Vincristine): 31 nM
IC50 (MESSA [2]): 7.9 ± 6 nM
SMILES: CC[C@]1(O)C[C@H]2CN(CCc3c([nH]c4ccccc34)[C@@](C(=O)OC)(c3cc4c(cc3OC)N(C=O)[C@H]3[C@@](O)(C(=O)OC)[C@H](OC(C)=O)[C@]5(CC)C=CCN6CC[C@]43[C@@H]65)C2)C1 [Vincristine]

IC50 (TG-LAM-134-P0; read-out: IC50 (µM) / AzaC): 39.1 µM
IC50 (TG-LAM-135-P0; read-out: IC50 (µM) / AzaC): > 50 µM
IC50 (TG-LAM-136-P0; read-out: IC50 (µM) / AzaC): > 50 µM
IC50 (TG-LAM-138-P0; read-out: IC50 (µM) / AzaC): > 50 µM
IC50 (TG-LAM-139-P0; read-out: IC50 (µM) / AzaC): 38.5 µM
IC50 (TG-LAM-140-P0; read-out: IC50 (µM) / AzaC): 16.7 µM
IC50 (TG-LAM-141-P0; read-out: IC50 (µM) / AzaC): 20.4 µM
IC50 (TG-LAM-142-P0; read-out: IC50 (µM) / AzaC): > 50 µM
IC50 (TG-LAM-143-P0): 29.2 µM
IC50 (TG-LAM-144-P0; read-out: IC50 (µM) / AzaC): 41.7 µM
IC50 (TG-LAM-145-P0; read-out: IC50 (µM) / AzaC): 49.5 µM
IC50 (TG-LAM-75-P3): 13 µM
IC50 (TG-LAM-76-P3): 9.7 µM
IC50 (TG-LAM-77-P0; read-out: IC50 (µM) / AzaC): 19.2 µM
SMILES: Nc1ncn([C@@H]2O[C@H](CO)[C@@H](O)[C@H]2O)c(=O)n1 [5-azacytidine]

IC50 (A-549; read-out: Eribulin): 3 nM
IC50 (DU-145; read-out: Eribulin): 2 nM
IC50 (H-1299; read-out: Eribulin): 75 nM
IC50 (HEP-2; read-out: Eribulin): 39 nM
IC50 (HL-60; read-out: Eribulin): 2 nM
IC50 (HRT-18; read-out: Eribulin): 99 nM
IC50 (HUT-78; read-out: Eribulin): 1 nM
IC50 (Karpas-299; read-out: Eribulin): 1 nM
IC50 (MESSA [1]; read-out: Eribulin): 121 nM
IC50 (NALM-6; read-out: Eribulin): 2 nM
IC50 (REC-1; read-out: Eribulin): 125 nM
IC50 (SW-872; read-out: Eribulin): 83 nM
IC50 (U2OS): 32 nM
SMILES: C=C1C[C@@H]2CC[C@@]34C[C@H]5O[C@H]6[C@@H](O3)[C@H]3O[C@H](CC[C@@H]3O[C@H]6[C@H]5O4)CC(=O)C[C@@H]3[C@@H](OC)[C@@H](C[C@H](O)CN)O[C@H]3C[C@H]3O[C@@H](CC[C@@H]1O2)C[C@@H](C)C3=C [Eribulin]
